Reference: patent publication US4536397A, “Antibiotics, neoviridogriseins, and their method of production” (Sanraku-Ocean Co., Ltd., priority 1983, dated 1985)
≈ marks a conversion by molar mass, not a printed value. Starred links: 1 amine or outer side, 2 acyl side, 3 side chain; linkers in the order of their positions; H or OH if unused. Positions of bridges follow the written chain, without caps; N, C: chain ends. Non-standard residues stand in square brackets, D forms with d. Residues, ends and D or L forms follow the SMILES beside them. ξ: configuration not given here. *: point of attachment. NMeLeu(3ξ-Me) = CN[C@H](C(=O)O)C(C)C(C)C; X1 = CC(C)C(C)C(C(=O)[*:2])N(C)[*:1]; Picolinoyl(3-OH) = O=C(c1ncccc1O)*; NMePhg = CN[CH](C(=O)O)c1ccccc1; Thr(3ξ) = CC(O)[C@H](N)C(=O)O; Abu = CC[C@H](N)C(=O)O; Sar = CNCC(=O)O

Columns and labels:
Sarcina lutea = test: MIC, tube dilution method (incl. synergism with griseoviridin); format: cell-based
[1] = tested on: Mycoplasma gallisepticum KP13; test: MIC, dilution method, Mycoplasma; format: cell-based; parameters: unit not given beside the values; details: Table 4; PPLO enrichment broth (Eiken)
Experimental: (§1) The MIC were determined by the dilution method.
Medium (1): PPLO enrichment broth (Eiken, Japan)
(§2) was tested in vitro agains several Mycoplasma strains.

[2] = tested on: Mycoplasma agalactiae PG 2; test: MIC, dilution method, Mycoplasma; format: cell-based; details: Table 4; PPLO broth (Chanock's medium; Difco)
Experimental: as §1
(§3) (2): PPLO broth (Chanock's medium; Difco)
as §2

Mycoplasma fermentans = test: MIC, dilution method, Mycoplasma; format: cell-based; details: Table 4; PPLO broth (Chanock's medium; Difco)
Experimental: as §1, §3, §2

[3] = tested on: Mycoplasma pulmonis PG 22; test: MIC, dilution method, Mycoplasma; format: cell-based; details: Table 4; PPLO broth (Chanock's medium; Difco)
Experimental: as §1, §3, §2

Staphylococcus aureus [4] = test: MIC, tube dilution method; format: cell-based; details: BHI broth
Staphylococcus sp. = test: MIC, tube dilution method; format: cell-based; details: BHI broth
[5] = tested on: Diplococcus pneumoniac type 1; test: MIC, tube dilution method; format: cell-based, Diplococcus pneumoniae; details: BHI broth containing 10% horse blood
Streptococcus pyogenes = test: MIC, tube dilution method; format: cell-based; details: BHI broth containing 10% horse blood
[6] = tested on: Bacillus subtilis ATCC 6633; test: MIC, tube dilution method; format: cell-based; details: BHI broth
Salmonella gallinanum = test: MIC, tube dilution method; format: cell-based; details: BHI broth
Escherichia coli = test: MIC, tube dilution method; format: cell-based; details: BHI broth
Pseudeomonas aeruginosa = test: MIC, tube dilution method; format: cell-based; details: BHI broth
Proteus vulgaris = test: MIC, tube dilution method; format: cell-based; details: BHI broth
Candida albicans = test: MIC, tube dilution method; format: cell-based; details: malt extract-yeast extract medium
Solubility in solvents = format: physicochemical; details: for solubility in organic solvents: methanol, ethanol, propanols, n-butanol, dioxane, acetates, ketones, benzene, toluene, chlorinated solvents, DMF, DMSO
Staphylococcus aureus [7] = test: MIC repeated with a far lower dilution rate; format: cell-based; details: for MIC: far lower dilution rate, brain heart infusion broth
From the text: This MIC experiment was based on the two-fold dilutions. To differentiate neoviridogrisein II and viridogrisein in their antibiotic activity, the MIC determination was repeated with a far lower dilution rate.
Medium: brain heart infusion broth

**Q.** Which MIC (Sarcina lutea; Table 3, varied ratios of neoviridogriseins mixture to griseoviridin, tube dilution, brain heart infusion broth) does the source give for `C[C@@H]1C/C=C2\SC[C@@H](NC(=O)c3coc(n3)C[C@H](O)C[C@H](O)/C=C/C=C/CNC2=O)C(=O)O1` [GV, griseoviridin] here?
**A.** 0.250 µg/mL

**Q.** What about the MIC [1] of the same molecule?
**A.** 0.10

**Q.** And the MIC [2]?
**A.** 3.13

**Q.** What about the MIC (Mycoplasma fermentans) of the same molecule?
**A.** < 0.05

**Q.** What about the MIC [3] of the same molecule?
**A.** 6.25

**Q.** Which results are given for `CC[C@@H]1NC(=O)[C@H](C(C)C(C)C)N(C)C(=O)CN(C)C(=O)[C@H]2CCCN2C(=O)[C@@H](CC(C)C)NC(=O)[C@@H](NC(=O)c2ncccc2O)C(C)OC(=O)[C@H](c2ccccc2)N(C)C1=O` (stereo partly drawn) [NV I, neoviridogrisein I] ({Picolinoyl(3-OH)}-[Thr(3ξ)][dL][dP][Sar][NMeLeu(3ξ-Me)][Abu][NMePhg]; ester 1-C)?
**A.** MIC (Staphylococcus aureus [4]; strain 209P): 0.2 µg/mL (≈ 0.228 µM); MIC (Staphylococcus aureus [4]; strain (BX-1633)(PC)r): 0.4 µg/mL (≈ 0.456 µM); MIC (Staphylococcus aureus [4]; strain (EM)r): 0.4 µg/mL (≈ 0.456 µM); MIC (Staphylococcus aureus [4]; strain (EM, CM, SM, PC, TC)r): 0.4 µg/mL (≈ 0.456 µM); MIC (Staphylococcus aureus [4]; strain (EM, OM)r): 0.8 µg/mL (≈ 0.912 µM); MIC (Staphylococcus aureus [4]; strain (PC, EM, NM)r): 0.8 µg/mL (≈ 0.912 µM); MIC (Staphylococcus aureus [4]; strain (PC, TC, EM, LM)r 1): 6.25 µg/mL (≈ 7.13 µM); MIC (Staphylococcus aureus [4]; strain (PC, TC, EM, LM)r 2): 6.25 µg/mL (≈ 7.13 µM); MIC (Staphylococcus aureus [4]; strain (SM, STH)r): 0.4 µg/mL (≈ 0.456 µM); MIC (Staphylococcus aureus [4]; strain (STH)r): 0.8 µg/mL (≈ 0.912 µM); MIC (Staphylococcus aureus [4]; strain (TC, CP, PC)r): 0.2 µg/mL (≈ 0.228 µM); MIC (Staphylococcus aureus [4]; strain (TC, EM, LM, CP)r): 6.25 µg/mL (≈ 7.13 µM); MIC (Staphylococcus aureus [4]; strain Russell(PC)r): 0.2 µg/mL (≈ 0.228 µM); MIC (Staphylococcus aureus [4]; strain Smith): 0.2 µg/mL (≈ 0.228 µM); MIC (Staphylococcus sp.; Staphylococcus sp. (PC)r): 0.8 µg/mL (≈ 0.912 µM); MIC (Staphylococcus sp.; Staphylococcus sp.): 0.8 µg/mL (≈ 0.912 µM); MIC [5]: 0.2 µg/mL (≈ 0.228 µM); MIC (Streptococcus pyogenes): 0.4 µg/mL (≈ 0.456 µM); MIC (Sarcina lutea; Table 1, BHI broth): 0.2 µg/mL; MIC [6]: 0.4 µg/mL (≈ 0.456 µM); MIC (Salmonella gallinanum): > 25 µg/mL; MIC (Escherichia coli): > 25 µg/mL; MIC (Pseudeomonas aeruginosa): > 25 µg/mL; MIC (Proteus vulgaris): > 25 µg/mL; MIC (Candida albicans): > 25 µg/mL; solubility in organic solvents (Solubility in solvents): soluble; solubility in petroleum ether and hexane (Solubility in solvents): practically insoluble; solubility in water and ethyl ether (Solubility in solvents): hardly soluble

**Q.** Which MIC (Staphylococcus aureus [4]; strain 209P) does the source give for `CC(C)CC1NC(=O)C(NC(=O)c2ncccc2O)C(C)OC(=O)C(c2ccccc2)N(C)C(=O)C(C)NC(=O)C(C(C)C(C)C)N(C)C(=O)CN(C)C(=O)C2CCCN2C1=O` (stereo not drawn) [NV II, neoviridogrisein II] ({Picolinoyl(3-OH)}-TLP[Sar][X1]A[NMePhg]; ester 1-C; configuration not given here) here?
**A.** 0.1 µg/mL (≈ 0.116 µM)

**Q.** And the MIC (Staphylococcus aureus [4]; strain (BX-1633)(PC)r)?
**A.** 0.2 µg/mL (≈ 0.232 µM)

**Q.** What about the MIC (Staphylococcus aureus [4]; strain (EM)r) of the same molecule?
**A.** 0.4 µg/mL (≈ 0.463 µM)

**Q.** What about the MIC (Staphylococcus aureus [4]; strain (EM, CM, SM, PC, TC)r) of the same molecule?
**A.** 0.2 µg/mL (≈ 0.232 µM)

**Q.** What about the MIC (Staphylococcus aureus [4]; strain (EM, OM)r) of the same molecule?
**A.** 0.4 µg/mL (≈ 0.463 µM)

**Q.** And the MIC (Staphylococcus aureus [4]; strain (PC, EM, NM)r)?
**A.** 0.4 µg/mL (≈ 0.463 µM)

**Q.** And the MIC (Staphylococcus aureus [4]; strain (PC, TC, EM, LM)r 1)?
**A.** 6.25 µg/mL (≈ 7.24 µM)

**Q.** And the MIC (Staphylococcus aureus [4]; strain (PC, TC, EM, LM)r 2)?
**A.** 6.25 µg/mL (≈ 7.24 µM)

**Q.** And the MIC (Staphylococcus aureus [4]; strain (SM, STH)r)?
**A.** 0.2 µg/mL (≈ 0.232 µM)

**Q.** And the MIC (Staphylococcus aureus [4]; strain (STH)r)?
**A.** 0.8 µg/mL (≈ 0.927 µM)

**Q.** What about the MIC (Staphylococcus aureus [4]; strain (TC, CP, PC)r) of the same molecule?
**A.** 0.2 µg/mL (≈ 0.232 µM)

**Q.** What about the MIC (Staphylococcus aureus [4]; strain (TC, EM, LM, CP)r) of the same molecule?
**A.** 6.25 µg/mL (≈ 7.24 µM)

**Q.** What about the MIC (Staphylococcus aureus [4]; strain Russell(PC)r) of the same molecule?
**A.** 0.2 µg/mL (≈ 0.232 µM)

**Q.** What about the MIC (Staphylococcus aureus [4]; strain Smith) of the same molecule?
**A.** 0.2 µg/mL (≈ 0.232 µM)

**Q.** What about the MIC (Staphylococcus sp.; Staphylococcus sp. (PC)r) of the same molecule?
**A.** 0.4 µg/mL (≈ 0.463 µM)

**Q.** What about the MIC (Staphylococcus sp.; Staphylococcus sp.) of the same molecule?
**A.** 0.8 µg/mL (≈ 0.927 µM)

**Q.** What about the MIC [5] of the same molecule?
**A.** 0.4 µg/mL (≈ 0.463 µM)

**Q.** What about the MIC (Streptococcus pyogenes) of the same molecule?
**A.** 0.2 µg/mL (≈ 0.232 µM)

**Q.** What about the MIC (Sarcina lutea; Table 1, BHI broth) of the same molecule?
**A.** 0.4 µg/mL

**Q.** What about the MIC [6] of the same molecule?
**A.** 0.4 µg/mL (≈ 0.463 µM)

**Q.** And the MIC (Salmonella gallinanum)?
**A.** > 25 µg/mL

**Q.** What about the MIC (Escherichia coli) of the same molecule?
**A.** > 25 µg/mL

**Q.** What about the MIC (Pseudeomonas aeruginosa) of the same molecule?
**A.** > 25 µg/mL

**Q.** What about the MIC (Proteus vulgaris) of the same molecule?
**A.** > 25 µg/mL

**Q.** And the MIC (Candida albicans)?
**A.** > 25 µg/mL

**Q.** And the MIC [1]?
**A.** 0.025

**Q.** And the MIC [2]?
**A.** 0.39

**Q.** What about the MIC (Mycoplasma fermentans) of the same molecule?
**A.** < 0.05

**Q.** What about the MIC [3] of the same molecule?
**A.** 0.78

**Q.** And the “solubility in organic solvents” value (Solubility in solvents)?
**A.** soluble

**Q.** What about the “solubility in petroleum ether and hexane” value (Solubility in solvents) of the same molecule?
**A.** practically insoluble

**Q.** And the “solubility in water and ethyl ether” value (Solubility in solvents)?
**A.** hardly soluble

**Q.** And the “times more active than viridogrisein” value (Staphylococcus aureus [7]; from the MIC values of Table 2)?
**A.** 2-3 times

**Q.** And the MIC (Staphylococcus aureus [7]; strain 209 P)?
**A.** 0.078 µg/mL (≈ 0.0904 µM)

**Q.** And the MIC (Staphylococcus aureus [7]; strain (EM, CM, SM, PC, TC)r)?
**A.** 0.125 µg/mL (≈ 0.145 µM)

**Q.** And the MIC (Staphylococcus aureus [7]; strain (TC, CP, PC)r)?
**A.** 0.094 µg/mL (≈ 0.109 µM)

**Q.** And the MIC (Staphylococcus aureus [7]; strain Bx-1633(PC)r)?
**A.** 0.125 µg/mL (≈ 0.145 µM)

**Q.** What about the MIC (Staphylococcus aureus [7]; strain Russell(PC)r) of the same molecule?
**A.** 0.125 µg/mL (≈ 0.145 µM)

**Q.** And the MIC (Staphylococcus aureus [7]; strain Smith)?
**A.** 0.125 µg/mL (≈ 0.145 µM)
